Measured values published in the kinase profiling compilation of Christmann-Franck et al. (2016).

Legend:
Assay in all cases: KINOMEscan competition binding
Details in all cases: compound 10.0 µM
MYLK (human) = MYLK (human) (UniProt Q15746)
EPHB2 (human) = EPHB2 (human) (UniProt P29323)
CAMKK1 (human) = CAMKK1 (human) (UniProt Q8N5S9)
PRKACA (human) = PRKACA (human) (UniProt P17612)
SRC (human) = SRC (human) (UniProt P12931)
BMPR2 (human) = BMPR2 (human) (UniProt Q13873)
CDK17 (human) = CDK17 (human) (UniProt Q00537)
CDC42BPB (human) = CDC42BPB (human) (UniProt Q9Y5S2)
MARK1 (human) = MARK1 (human) (UniProt Q9P0L2)
PAK4 (human) = PAK4 (human) (UniProt O96013)
STK33 (human) = STK33 (human) (UniProt Q9BYT3)
TEC (human) = TEC (human) (UniProt P42680)
[1] = molecular target: TYK2 JH2 pseudokinase (human) (UniProt P29597)
CDKL2 (human) = CDKL2 (human) (UniProt Q92772)
PRKD2 (human) = PRKD2 (human) (UniProt Q9BZL6)
MAP3K3 (human) = MAP3K3 (human) (UniProt Q99759)
IRAK3 (human) = IRAK3 (human) (UniProt Q9Y616)
MAPKAPK5 (human) = MAPKAPK5 (human) (UniProt Q8IW41)
MYO3B (human) = MYO3B (human) (UniProt Q8WXR4)
STK11 (human) = STK11 (human) (UniProt Q15831)
[2] = tested on: ABL1 (human), P00519 [M351T]
BMPR1A (human) = BMPR1A (human) (UniProt P36894)
PIM1 (human) = PIM1 (human) (UniProt P11309)
[3] = tested on: KIT (human), P10721 [D816V]
CDK8 (human) = CDK8 (human) (UniProt P49336)
PDGFRB (human) = PDGFRB (human) (UniProt P09619)
MAP2K6 (human) = MAP2K6 (human) (UniProt P52564)
ABL2 (human) = ABL2 (human) (UniProt P42684)
MAP2K3 (human) = MAP2K3 (human) (UniProt P46734)
CAMK4 (human) = CAMK4 (human) (UniProt Q16566)
FYN (human) = FYN (human) (UniProt P06241)
RET (human) = RET (human) (UniProt P07949)
NEK9 (human) = NEK9 (human) (UniProt Q8TD19)
CDK11B (human) = CDK11B (human) (UniProt P21127)
PIK3CD (human) = PIK3CD (human) (UniProt O00329)
MLTK (human) = MLTK (human) (UniProt Q9NYL2)
CDK18 (human) = CDK18 (human) (UniProt Q07002)
RPS6KA1 KD1 (human) = RPS6KA1 KD1 (human) (UniProt Q15418)
EIF2AK2 (human) = EIF2AK2 (human) (UniProt P19525)
CSNK1D (human) = CSNK1D (human) (UniProt P48730)

PDGFRB (human), sequence (P09619 whole entry, looked up): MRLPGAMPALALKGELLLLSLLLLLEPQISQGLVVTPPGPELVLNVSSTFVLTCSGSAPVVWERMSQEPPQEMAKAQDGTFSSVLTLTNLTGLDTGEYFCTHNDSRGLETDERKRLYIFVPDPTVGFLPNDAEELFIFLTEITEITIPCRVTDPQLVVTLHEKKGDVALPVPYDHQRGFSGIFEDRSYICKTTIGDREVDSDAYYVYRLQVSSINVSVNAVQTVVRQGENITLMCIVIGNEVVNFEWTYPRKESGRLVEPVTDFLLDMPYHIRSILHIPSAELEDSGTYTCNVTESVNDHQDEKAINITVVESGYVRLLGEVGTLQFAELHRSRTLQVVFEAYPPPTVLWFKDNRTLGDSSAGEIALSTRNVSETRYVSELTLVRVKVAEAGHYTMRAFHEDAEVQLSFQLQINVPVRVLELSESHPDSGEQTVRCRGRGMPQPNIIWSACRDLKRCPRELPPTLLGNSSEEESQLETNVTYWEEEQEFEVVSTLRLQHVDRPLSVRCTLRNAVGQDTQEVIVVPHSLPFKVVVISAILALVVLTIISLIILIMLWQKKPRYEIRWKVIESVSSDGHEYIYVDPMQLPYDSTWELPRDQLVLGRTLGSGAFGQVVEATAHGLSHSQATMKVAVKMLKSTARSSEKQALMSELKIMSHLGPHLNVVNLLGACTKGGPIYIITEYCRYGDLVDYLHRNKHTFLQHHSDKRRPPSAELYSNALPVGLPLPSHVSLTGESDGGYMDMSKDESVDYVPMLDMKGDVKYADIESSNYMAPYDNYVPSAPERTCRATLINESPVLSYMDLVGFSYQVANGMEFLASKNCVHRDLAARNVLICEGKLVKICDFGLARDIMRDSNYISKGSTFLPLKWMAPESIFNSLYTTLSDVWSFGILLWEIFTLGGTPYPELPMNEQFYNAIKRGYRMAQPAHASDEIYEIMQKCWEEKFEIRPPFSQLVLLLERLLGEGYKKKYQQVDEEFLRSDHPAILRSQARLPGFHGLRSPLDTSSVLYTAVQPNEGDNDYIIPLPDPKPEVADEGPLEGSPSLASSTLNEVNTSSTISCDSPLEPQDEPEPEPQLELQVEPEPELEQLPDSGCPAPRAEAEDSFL
MYLK (human), sequence (Q15746 whole entry, looked up): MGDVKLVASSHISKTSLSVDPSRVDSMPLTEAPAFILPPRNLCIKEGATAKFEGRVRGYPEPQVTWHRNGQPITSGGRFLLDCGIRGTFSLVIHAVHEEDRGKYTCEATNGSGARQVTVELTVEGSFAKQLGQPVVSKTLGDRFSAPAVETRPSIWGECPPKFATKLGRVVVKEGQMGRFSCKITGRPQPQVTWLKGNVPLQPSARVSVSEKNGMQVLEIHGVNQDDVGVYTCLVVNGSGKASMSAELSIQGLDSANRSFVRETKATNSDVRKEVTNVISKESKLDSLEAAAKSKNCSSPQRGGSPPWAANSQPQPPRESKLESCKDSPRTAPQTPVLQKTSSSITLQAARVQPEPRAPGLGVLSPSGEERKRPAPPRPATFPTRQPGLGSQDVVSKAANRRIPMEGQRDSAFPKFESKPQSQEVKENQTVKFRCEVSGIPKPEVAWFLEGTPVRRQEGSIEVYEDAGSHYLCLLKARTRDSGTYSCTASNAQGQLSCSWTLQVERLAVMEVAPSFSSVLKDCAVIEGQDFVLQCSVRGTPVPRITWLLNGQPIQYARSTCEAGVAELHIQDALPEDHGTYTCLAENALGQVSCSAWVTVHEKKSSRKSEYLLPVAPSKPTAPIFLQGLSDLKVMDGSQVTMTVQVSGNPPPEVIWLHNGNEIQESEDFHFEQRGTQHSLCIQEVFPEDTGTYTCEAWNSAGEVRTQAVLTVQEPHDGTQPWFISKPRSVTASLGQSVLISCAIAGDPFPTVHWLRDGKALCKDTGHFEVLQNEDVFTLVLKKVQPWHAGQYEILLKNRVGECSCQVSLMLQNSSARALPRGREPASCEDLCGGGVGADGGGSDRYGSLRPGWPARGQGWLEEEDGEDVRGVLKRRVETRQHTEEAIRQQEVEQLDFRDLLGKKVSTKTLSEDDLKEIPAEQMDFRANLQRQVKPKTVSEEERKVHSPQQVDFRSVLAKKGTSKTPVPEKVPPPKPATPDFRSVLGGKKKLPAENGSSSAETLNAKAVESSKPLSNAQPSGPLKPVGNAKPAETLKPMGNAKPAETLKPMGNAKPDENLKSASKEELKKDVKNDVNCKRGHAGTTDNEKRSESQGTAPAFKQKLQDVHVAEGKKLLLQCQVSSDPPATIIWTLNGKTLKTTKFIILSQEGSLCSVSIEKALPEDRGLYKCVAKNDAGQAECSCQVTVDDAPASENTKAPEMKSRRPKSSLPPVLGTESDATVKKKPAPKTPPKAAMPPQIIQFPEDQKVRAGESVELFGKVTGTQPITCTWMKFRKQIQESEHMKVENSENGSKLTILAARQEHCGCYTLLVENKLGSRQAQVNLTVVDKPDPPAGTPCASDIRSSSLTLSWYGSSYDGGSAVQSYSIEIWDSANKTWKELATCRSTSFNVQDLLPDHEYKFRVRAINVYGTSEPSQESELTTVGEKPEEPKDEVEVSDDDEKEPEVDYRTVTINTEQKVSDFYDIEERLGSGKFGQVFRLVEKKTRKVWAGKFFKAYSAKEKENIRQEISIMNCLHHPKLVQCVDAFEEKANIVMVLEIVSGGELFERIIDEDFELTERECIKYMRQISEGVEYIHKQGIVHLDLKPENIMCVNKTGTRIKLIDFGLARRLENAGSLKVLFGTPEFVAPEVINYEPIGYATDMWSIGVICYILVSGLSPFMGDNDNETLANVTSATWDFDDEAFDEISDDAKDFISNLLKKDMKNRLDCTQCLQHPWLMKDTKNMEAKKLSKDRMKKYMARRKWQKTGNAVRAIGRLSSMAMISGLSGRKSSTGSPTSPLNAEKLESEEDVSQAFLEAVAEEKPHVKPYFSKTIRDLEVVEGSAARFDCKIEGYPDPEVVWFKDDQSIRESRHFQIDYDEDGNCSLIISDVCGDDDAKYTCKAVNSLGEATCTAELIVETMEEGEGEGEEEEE
PRKD2 (human), sequence (Q9BZL6 whole entry, looked up): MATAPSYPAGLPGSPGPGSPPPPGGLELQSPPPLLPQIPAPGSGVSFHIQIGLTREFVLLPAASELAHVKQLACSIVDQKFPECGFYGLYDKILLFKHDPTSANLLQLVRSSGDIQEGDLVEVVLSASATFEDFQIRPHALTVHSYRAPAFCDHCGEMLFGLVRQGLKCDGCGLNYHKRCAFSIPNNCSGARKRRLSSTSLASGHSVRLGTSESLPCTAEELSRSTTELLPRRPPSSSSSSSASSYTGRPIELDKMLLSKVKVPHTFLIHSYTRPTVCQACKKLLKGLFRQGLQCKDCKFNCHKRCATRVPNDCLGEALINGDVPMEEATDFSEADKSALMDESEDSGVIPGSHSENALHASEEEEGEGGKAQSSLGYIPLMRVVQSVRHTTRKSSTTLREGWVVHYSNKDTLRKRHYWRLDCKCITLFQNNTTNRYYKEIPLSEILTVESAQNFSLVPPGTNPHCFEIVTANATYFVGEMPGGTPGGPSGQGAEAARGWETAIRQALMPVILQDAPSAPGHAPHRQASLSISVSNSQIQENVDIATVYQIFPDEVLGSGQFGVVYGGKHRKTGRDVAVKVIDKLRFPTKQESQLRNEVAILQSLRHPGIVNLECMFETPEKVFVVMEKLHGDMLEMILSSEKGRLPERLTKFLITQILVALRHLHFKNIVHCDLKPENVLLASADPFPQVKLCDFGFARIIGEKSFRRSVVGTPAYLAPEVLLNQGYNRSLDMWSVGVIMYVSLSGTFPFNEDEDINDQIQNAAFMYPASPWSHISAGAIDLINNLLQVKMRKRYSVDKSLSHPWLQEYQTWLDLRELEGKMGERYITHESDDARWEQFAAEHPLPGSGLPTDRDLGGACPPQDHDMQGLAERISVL
BMPR1A (human), sequence (P36894 whole entry, looked up): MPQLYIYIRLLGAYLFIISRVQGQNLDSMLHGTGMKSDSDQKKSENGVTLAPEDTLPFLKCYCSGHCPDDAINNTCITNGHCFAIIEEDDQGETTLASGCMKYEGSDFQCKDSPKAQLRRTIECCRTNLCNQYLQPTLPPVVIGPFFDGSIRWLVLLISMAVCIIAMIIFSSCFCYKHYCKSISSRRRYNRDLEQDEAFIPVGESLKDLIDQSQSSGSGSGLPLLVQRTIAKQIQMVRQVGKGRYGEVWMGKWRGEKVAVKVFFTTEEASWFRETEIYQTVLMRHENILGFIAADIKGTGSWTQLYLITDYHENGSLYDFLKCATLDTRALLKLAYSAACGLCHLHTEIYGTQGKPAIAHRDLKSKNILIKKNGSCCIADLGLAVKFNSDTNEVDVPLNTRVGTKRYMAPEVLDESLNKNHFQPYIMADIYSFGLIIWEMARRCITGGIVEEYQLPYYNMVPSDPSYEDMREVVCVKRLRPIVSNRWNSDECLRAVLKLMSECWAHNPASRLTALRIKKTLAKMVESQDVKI
PIM1 (human), sequence (P11309 whole entry, looked up): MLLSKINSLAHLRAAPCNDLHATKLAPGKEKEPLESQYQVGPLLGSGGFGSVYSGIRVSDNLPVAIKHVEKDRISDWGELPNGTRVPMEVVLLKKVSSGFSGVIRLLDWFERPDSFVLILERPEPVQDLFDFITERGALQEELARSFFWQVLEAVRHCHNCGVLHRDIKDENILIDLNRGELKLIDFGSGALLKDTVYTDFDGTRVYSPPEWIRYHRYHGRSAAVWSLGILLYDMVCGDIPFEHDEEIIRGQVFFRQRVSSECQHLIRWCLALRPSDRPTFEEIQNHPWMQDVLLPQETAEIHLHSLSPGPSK
MAP2K6 (human), sequence (P52564 whole entry, looked up): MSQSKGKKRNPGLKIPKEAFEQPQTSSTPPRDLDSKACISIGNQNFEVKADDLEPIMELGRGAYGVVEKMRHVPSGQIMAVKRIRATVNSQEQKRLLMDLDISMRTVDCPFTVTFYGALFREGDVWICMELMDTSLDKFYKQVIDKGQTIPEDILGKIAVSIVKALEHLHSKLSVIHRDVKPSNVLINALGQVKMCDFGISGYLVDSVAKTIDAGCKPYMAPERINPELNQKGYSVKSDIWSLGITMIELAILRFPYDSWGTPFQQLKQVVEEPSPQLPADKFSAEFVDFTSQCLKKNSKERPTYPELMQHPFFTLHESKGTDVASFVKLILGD

| Compound | kinase still bound, per cent of control (MYLK (human)) | kinase still bound, per cent of control (EPHB2 (human)) | kinase still bound, per cent of control (CAMKK1 (human)) | kinase still bound, per cent of control (PRKACA (human)) | kinase still bound, per cent of control (SRC (human)) | kinase still bound, per cent of control (BMPR2 (human)) | kinase still bound, per cent of control (CDK17 (human)) | kinase still bound, per cent of control (CDC42BPB (human)) | kinase still bound, per cent of control (MARK1 (human)) | kinase still bound, per cent of control (PAK4 (human)) | kinase still bound, per cent of control (TEC (human)) | kinase still bound, per cent of control [1] | kinase still bound, per cent of control (CDKL2 (human)) | kinase still bound, per cent of control (PRKD2 (human)) | kinase still bound, per cent of control (MAP3K3 (human)) | kinase still bound, per cent of control (IRAK3 (human)) | kinase still bound, per cent of control (MAPKAPK5 (human)) | kinase still bound, per cent of control (MYO3B (human)) | kinase still bound, per cent of control [2] | kinase still bound, per cent of control (BMPR1A (human)) | other results |
| --- | --- | --- | --- | --- | --- | --- | --- | --- | --- | --- | --- | --- | --- | --- | --- | --- | --- | --- | --- | --- | --- |
| CC[C@@H]1C(=O)N(C)c2cnc(Nc3ccc(C(=O)NC4CCN(C)CC4)cc3OC)nc2N1C1CCCC1 | 3.6% | 100% | 1.9% | 100% | 100% | 100% | 100% | 100% | 100% | 100% | 100% | 100% | 100% | 16% | 100% | 100% | 100% | 100% | 100% | 100% | kinase still bound, per cent of control (STK33 (human)): 14%; kinase still bound, per cent of control (STK11 (human)): 100%; kinase still bound, per cent of control (PIM1 (human)): 100%; kinase still bound, per cent of control [3]: 100%; kinase still bound, per cent of control (CDK8 (human)): 100%; kinase still bound, per cent of control (PDGFRB (human)): 100%; kinase still bound, per cent of control (MAP2K6 (human)): 100%; kinase still bound, per cent of control (ABL2 (human)): 100%; kinase still bound, per cent of control (MAP2K3 (human)): 100%; kinase still bound, per cent of control (CAMK4 (human)): 100%; kinase still bound, per cent of control (FYN (human)): 100%; kinase still bound, per cent of control (RET (human)): 100%; kinase still bound, per cent of control (NEK9 (human)): 100%; kinase still bound, per cent of control (CDK11B (human)): 100%; kinase still bound, per cent of control (PIK3CD (human)): 100%; kinase still bound, per cent of control (MLTK (human)): 100%; kinase still bound, per cent of control (CDK18 (human)): 100%; kinase still bound, per cent of control (RPS6KA1 KD1 (human)): 100%; kinase still bound, per cent of control (EIF2AK2 (human)): 100% |
| OCCCNc1cc(-c2ccnc(Nc3cccc(Cl)c3)n2)ccn1 | 100% | 100% | 100% | 100% | 100% | 100% | 100% | 100% | 100% | 100% | 100% | 100% | 14% | 100% | 100% | 100% | 100% | 100% | 100% | 100% | kinase still bound, per cent of control (STK11 (human)): 100%; kinase still bound, per cent of control (PIM1 (human)): 100%; kinase still bound, per cent of control [3]: 100%; kinase still bound, per cent of control (CSNK1D (human)): 100%; kinase still bound, per cent of control (CDK8 (human)): 100%; kinase still bound, per cent of control (PDGFRB (human)): 100%; kinase still bound, per cent of control (MAP2K6 (human)): 100%; kinase still bound, per cent of control (ABL2 (human)): 100%; kinase still bound, per cent of control (MAP2K3 (human)): 100%; kinase still bound, per cent of control (CAMK4 (human)): 100%; kinase still bound, per cent of control (FYN (human)): 100%; kinase still bound, per cent of control (RET (human)): 100%; kinase still bound, per cent of control (NEK9 (human)): 100%; kinase still bound, per cent of control (CDK11B (human)): 100%; kinase still bound, per cent of control (PIK3CD (human)): 100%; kinase still bound, per cent of control (MLTK (human)): 100%; kinase still bound, per cent of control (CDK18 (human)): 100%; kinase still bound, per cent of control (RPS6KA1 KD1 (human)): 100%; kinase still bound, per cent of control (EIF2AK2 (human)): 100% |
| Cc1ccc2nc(NCCN)c3ncc(C)n3c2c1 | 79% | 100% | 100% | 100% | 100% | 96% | 92% | 100% | 100% | 100% | 100% | 15% | 82% | 72% | 100% | 72% | 100% | 100% | 100% | 32% | kinase still bound, per cent of control (STK33 (human)): 73%; kinase still bound, per cent of control (PIM1 (human)): 100%; kinase still bound, per cent of control [3]: 88%; kinase still bound, per cent of control (CSNK1D (human)): 45%; kinase still bound, per cent of control (CDK8 (human)): 100%; kinase still bound, per cent of control (PDGFRB (human)): 57%; kinase still bound, per cent of control (MAP2K6 (human)): 88%; kinase still bound, per cent of control (ABL2 (human)): 100%; kinase still bound, per cent of control (MAP2K3 (human)): 95%; kinase still bound, per cent of control (CAMK4 (human)): 100%; kinase still bound, per cent of control (FYN (human)): 100%; kinase still bound, per cent of control (RET (human)): 100%; kinase still bound, per cent of control (NEK9 (human)): 100%; kinase still bound, per cent of control (CDK11B (human)): 0.95%; kinase still bound, per cent of control (PIK3CD (human)): 99%; kinase still bound, per cent of control (MLTK (human)): 96%; kinase still bound, per cent of control (CDK18 (human)): 100%; kinase still bound, per cent of control (RPS6KA1 KD1 (human)): 79%; kinase still bound, per cent of control (EIF2AK2 (human)): 100% |
